# Results published in PubChem BioAssay AID1963430 (Molecular Pharmacology Branch, DTP, NCI, 2024).
# Test system: 521955-158-R2-J5-PDC complex spheroid growth, % test/control
# Test: Anticancer human tumor 521955-158-R2-J5-PDC patient-derived pancreatic carcinoma cell line growth inhibition [Asc]
# Conditions: for IC50: curve of first compound; for viability, T/C: stronger effect = lower value
# Summary of the method: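 Complex spheroids combining tumor cells with HUVEC endothelial cells and human MSCs, at 37 degrees C, 5% CO2; agents tested alone or combined, half-log dilutions from at or near clinical Cmax, or 10 microM if Cmax unknown.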
# 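Also: spheroids exposed to agents for 7 days before readout.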
# 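For viability, T/C in this document: 100% = DMSO vehicle control viability.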
structure (smiles),measurement,setting,value
NC(=O)C(=Cn1cnc(-c2cc(C(F)(F)F)cc(C(F)(F)F)c2)n1)c1cncnc1 + Cc1c(S(C)(=O)=O)c(-c2cc(F)cc(N3CCN(c4ccc(NS(=O)(=O)c5ccc(NC(CCN6CCC(C(=O)OCCCP(=O)(O)O)CC6)CSc6ccccc6)c(S(=O)(=O)C(F)(F)F)c5)cc4)CC3)c2)c(-c2ccc(Cl)cc2)n1C(C)C,IC50,second compound 0.1 µM,1.94 nM
same,IC50,second compound 0.316 µM,< 0.949 nM
same,IC50,second compound 1 µM,1.36 nM
same,IC50,second compound 3.16 µM,1.25 nM
same,IC50,second compound 10 µM,25.3 nM
same,"viability, T/C","second compound 0.1 µM, first compound 0.000949 µM",77.2%
same,"viability, T/C","second compound 0.1 µM, first compound 0.003 µM",33.3%
same,"viability, T/C","second compound 0.1 µM, first compound 0.00949 µM",28.4%
same,"viability, T/C","second compound 0.1 µM, first compound 0.03 µM",20.9%
same,"viability, T/C","second compound 0.1 µM, first compound 0.0949 µM",22.3%
same,"viability, T/C","second compound 0.1 µM, first compound 0.3 µM",28%
same,"viability, T/C","second compound 0.316 µM, first compound 0.000949 µM",44.5%
same,"viability, T/C","second compound 0.316 µM, first compound 0.003 µM",48%
same,"viability, T/C","second compound 0.316 µM, first compound 0.00949 µM",30%
same,"viability, T/C","second compound 0.316 µM, first compound 0.03 µM",23.2%
same,"viability, T/C","second compound 0.316 µM, first compound 0.0949 µM",17.2%
same,"viability, T/C","second compound 0.316 µM, first compound 0.3 µM",24.1%
same,"viability, T/C","second compound 1 µM, first compound 0.000949 µM",54.3%
same,"viability, T/C","second compound 1 µM, first compound 0.003 µM",40.5%
same,"viability, T/C","second compound 1 µM, first compound 0.00949 µM",21.4%
same,"viability, T/C","second compound 1 µM, first compound 0.03 µM",17.7%
same,"viability, T/C","second compound 1 µM, first compound 0.0949 µM",14.4%
same,"viability, T/C","second compound 1 µM, first compound 0.3 µM",14.8%
same,"viability, T/C","second compound 3.16 µM, first compound 0.000949 µM",53.2%
same,"viability, T/C","second compound 3.16 µM, first compound 0.003 µM",40%
same,"viability, T/C","second compound 3.16 µM, first compound 0.00949 µM",22.6%
same,"viability, T/C","second compound 3.16 µM, first compound 0.03 µM",13.5%
same,"viability, T/C","second compound 3.16 µM, first compound 0.0949 µM",9.75%
same,"viability, T/C","second compound 3.16 µM, first compound 0.3 µM",13.1%
same,"viability, T/C","second compound 10 µM, first compound 0.000949 µM",143%
same,"viability, T/C","second compound 10 µM, first compound 0.003 µM",106%
same,"viability, T/C","second compound 10 µM, first compound 0.00949 µM",91.4%
same,"viability, T/C","second compound 10 µM, first compound 0.03 µM",40.3%
same,"viability, T/C","second compound 10 µM, first compound 0.0949 µM",17.1%
same,"viability, T/C","second compound 10 µM, first compound 0.3 µM",10.8%
